Key:
[1] = Cytotoxicity against HUVEC cells assessed as reduction in cell viability incubated for 48 hrs by MTT assay; format: toxicity, cell-based; settings: human
786-0 = assay: Antiproliferative activity against human 786-0 cells assessed as reduction in cell viability incubated for 48 hrs by MTT assay; format: functional, cell-based; settings: 786-0, 48 h
HCT-116 = assay: Antiproliferative activity against human HCT-116 cells assessed as reduction in cell viability incubated for 48 hrs by MTT assay; format: functional, cell-based; settings: HCT-116, 48 h
HCC827 = assay: Antiproliferative activity against human HCC827 cells assessed as reduction in cell viability incubated for 48 hrs by MTT assay; format: functional, cell-based; settings: HCC827, 48 h
HepG2 = assay: Antiproliferative activity against human HepG2 cells assessed as reduction in cell viability incubated for 48 hrs by MTT assay; format: functional, cell-based; settings: HepG2, 48 h
[2] = Cytotoxicity against HK-2 cells assessed as reduction in cell viability incubated for 48 hrs by MTT assay; format: toxicity, cell-based; settings: human
K562 = assay: Antiproliferative activity against human K562 cells assessed as reduction in cell viability incubated for 48 hrs by MTT assay; format: functional, cell-based; settings: K562, 48 h
MGC-803 = assay: Antiproliferative activity against human MGC-803 cells assessed as reduction in cell viability incubated for 48 hrs by MTT assay; format: functional, cell-based; settings: MGC-803, 48 h

Compound | IC50 at 48 h [1] | IC50 (786-0) | IC50 (HCT-116) | IC50 (HCC827) | IC50 (HepG2) | IC50 at 48 h [2] | IC50 (K562) | IC50 (MGC-803)
CCN(CC)CCNC(=O)c1c(C)[nH]c(/C=C2\C(=O)Nc3ccc(F)cc32)c1C [SUNITINIB] | 7.7 µM | 9.02 µM | 2.23 µM | 1.34 µM | 4.7 µM | 6.88 µM | 1.25 µM | 8.25 µM
COc1ccc(CN2C(=O)C(=O)c3cc(-c4ccc(OC)cc4)cc(N)c32)cc1 | > 100 µM | > 100 µM | > 100 µM | 13.7 µM | > 100 µM | > 100 µM | 89.4 µM | > 100 µM
COc1ccc(CN2C(=O)C(=O)c3cc(-c4ccc(CO)cc4)ccc32)cc1 | 18.8 µM | 40.4 µM | 0.786 µM | 34.7 µM | > 100 µM | 12.6 µM | 0.81 µM | 29.2 µM
COc1ccc(CN2C(=O)C(=O)c3cc(-c4ccc(OC)cc4)cc([N+](=O)[O-])c32)cc1 | 10.6 µM | 15.2 µM | 0.263 µM | 3.62 µM | > 100 µM | 1.21 µM | 0.47 µM | 58.2 µM

Reference: ChEMBL document CHEMBL6121041, “Design and synthesis of isatin derivative payloaded peptide-drug conjugate as tubulin inhibitor against colorectal cancer” (Eur J Med Chem, 2025)
